# According to paper PMC8140105 (Scientific Reports, 2021):
# Assays:
# [1] = Capillary depletion; type: in vivo, ICR-CD-1 mice; conditions: 125I-labelled, i.v., mice, 10 min after injection, n = 2
# Protocol: Briefly, 0.1 µmol of the lyophilized peptide was dissolved in 100 µL of phosphate buffer (pH 7.4, 25 mM). A Iodo-Gen coated tube (Thermo Scientific, Merelbeke, Belgium) was first of all rinsed with 1 mL of phosphate buffer. Subsequently, 50 µL of sodium iodide solution (1.1 µmol/mL) and 1 mCi of Na^125I solution (Perking Elmer, Zaventem, Belgium) were transferred into this Iodo-Gen coated tube. The oxidation reaction was allowed to proceed for six minutes at room temperature, after which the iodonium solution was transferred to 50 µL of peptide solution (1 mM). The iodination reaction of the peptide was allowed to proceed for another six minutes at room temperature. Finally, the iodinated peptide was purified using a silver filter (Thermo Scientific, Merelbeke, Belgium).
# We performed capillary depletion to determine whether the peptides, taken up by the brain, completely crossed the capillary wall into the tissue rather than just being trapped by and in the endothelium. […] Subsequently, the brain was collected, weighed and the radioactivity measured in the gamma counter for 5 min. […] The resulting solution was weighed and centrifuged in a swinging bucket rotor at 5400g for 30 min at 4 °C, after measuring the radioactivity in the gamma counter. Pellet (capillaries) and supernatant (parenchyma and fat tissues) were also collected, weighed and measured in a gamma counter. […]
# [2] = Chemical and protease-inactivated homogenate stability; type: in vitro ADME, ICR-CD-1 mice; conditions: for Remaining amount of PapRIV: 1 hour at 37°C
# Protocol: The metabolization rate of the peptide varied between different biological matrices such as serum, brain tissue, liver tissue, kidney tissue and faeces. […] Different metabolites of the peptide could be identified. To exclude the possibility of non-enzymatic degradation, the chemical and protease-inactivated homogenate (by pre-heating the homogenate for 5 min at 95 °C) stability of the peptide was determined. Except for kidney tissue, PapRIV remained stable in protease-inactivated homogenates, pointing an enzymatic degradation in serum, liver, brain and faeces (Supplementary Table S1). In protease-inactivated kidney homogenate, approximately 45% of peptide loss after 60 min can be explained by protein interaction with some kidney specific proteins. In serum, six different metabolites were formed. The MS-spectra of the different metabolites formed and the metabolic profiles in different tissues are given in supplementary information (Supplementary Figs. S6, S7). DLPFEH is the main metabolite which is formed in all matrices, metabolization of the native peptide to this metabolite is the main contributor of the low half-lives observed in kidney tissue and serum (Supplementary Fig. S5). Also in faeces, the matrix in which PapRIV is produced by gut bacteria, metabolization to DLPFEH occurred.
# Supplementary method S3: Tissue homogenate preparation
# Preparation of Krebs-Henseleit buffer (pH 7.4) (KH-buffer)
# The powdered medium was dissolved in 900 mL water while stirring. To this solution, 0.3790 g CaCl2×2H2O and 2.098 g NaHCO3 was subsequently added while stirring. NaOH or HCl was used to adjust to pH 7.4. This solution was then further diluted to 1000 mL using ultrapure […]
# Preparation of tissue homogenates
# - The liver (n = 1), kidneys (n = 6), brains (n = 3), colons (n = 4) and faeces (0.196 g) of ICR-CD-1 mice were collected.
# - After cleaning and rinsing the tissues using ice-cold KH buffer, the tissues were cut in little pieces and transferred into a 50 mL tube to which 36 mL ice-cold KH buffer was added.
# - The tissues were then homogenized with at tissue homogenizer.
# - After the larger particles were allowed to settle for about 30 minutes at 5°C, approximately 25 mL of the middle layer was transferred into a 50 mL Falcon tube using a plastic pipette.
# - After shaking the homogenates, the homogenates were dispensed into 2 mL Eppendorf tubes, and stored at -35°C until use.
# - The protein content of the homogenates were determined using the Pierce Modified Lowry […]
# - Just before use, the homogenates were diluted to a protein concentration of 0.6 mg/mL (i.e.
# 300 µg / 500 µL) with KH buffer.
# - Into a 1.5 ml Protein LoBind tube, 900 µl of serum/tissue extract (500 µl of homogenate/serum and 400 µl of KH buffer, pH 7.4) was transferred.
# - After temperature-equilibration at 37°C for 15 min while shaking at 750 rpm, 100 µl of peptide solution (0.1 mg/mL) was added followed by continued incubation at 37°C (while shaking), with […] aliquots taken after 0, 5, 10, 30 and 60 minutes.
# - The aliquots were immediately transferred into 500 µl Protein LoBind Eppendorf tubes containing 100 µl of 1% V/V trifluoroacetic acid solution in water, heated for 5 minutes at 95°C, and cooled for 30 minutes in an ice-bath.
# - The samples were then centrifuged at 16,000 g for 5 minutes at 5°C.
# - The supernatants was then analyzed by UPLC-UV/MS.
# Supplementary table S1: Chemical and protease-inactivated homogenate stability of PapRIV […]
# Matrix Remaining amount of PapRIV (%)
substance,measurement,setting,value
"SDLPFEH [PapRIV, heptapeptide (SDLPFEH) quorum sensing peptide originating from the Bacillus cereus group; synthetic, purchased from GL Biochem]",Capillary fraction,[1],13.08%
same,Parenchymal fraction,[1],86.92%
same,Remaining amount of PapRIV,[2]; Inactivated brain homogenate (pre-heated 5 min at 95 °C),101.0%
same,Remaining amount of PapRIV,[2]; Inactivated colon homogenate (pre-heated 5 min at 95 °C),99.2%
same,Remaining amount of PapRIV,[2]; Inactivated faeces homogenate (pre-heated 5 min at 95 °C),101.4%
same,Remaining amount of PapRIV,[2]; Inactivated kidney homogenate (pre-heated 5 min at 95 °C),53.8%
same,Remaining amount of PapRIV,[2]; Inactivated liver homogenate (pre-heated 5 min at 95 °C),101.6%
same,Remaining amount of PapRIV,[2]; Inactivated serum (pre-heated 5 min at 95 °C),99.0%
same,Remaining amount of PapRIV,"[2]; KH-buffer (Krebs-Henseleit, pH 7.4), chemical stability",99.8%
same,peptide loss,"[2]; protease-inactivated kidney homogenate, after 60 min, explained by protein interaction",approximately 45%
